SMILES strings stand for the structures. “Also recorded” adds a separate entry of the source.

Experimental findings from patent US8283373B2, “Inhibitors of cytosolic phospholipase A2” (Pfizer Inc., priority 2005, dated 2012) are described below.

Assay [1] relates to collagen-induced arthritis. Description: Collagen-induced arthritis (CIA) model. Type of assay: in vivo, mouse. Here is the method: The compound of Example 10 was tested in the mouse CIA model, which has many immunologic and pathologic similarities to human rheumatoid arthritis (See Trentham, D. E., et al., supra). Arthritis was induced in DBA/1LacJ mice by intradermal injection of an emulsion of bovine type II collagen and CFA followed by a boost with an intradermal injection of bovine type II collagen emulsified in incomplete Freund's Adjuvant 21 days after the initial immunization. […] At that point animals were randomly assigned to treatment groups and administered the compound of Example 10 (100 mg/kg) PO BID for 28 days. Control groups received celecoxib, vehicle alone or were left untreated. All animals were scored daily in a blinded fashion for visual signs of disease symptoms.
The mean scores of the group treated with the compound of Example 10 were compared to the vehicle-control group values using the Student's t-test.
After completion of the experiments, paws were processed for histology. Two board certified veterinary pathologist evaluated the slides in a blinded fashion. Each paw was assigned a numerical score for both arthritis severity and the general number of joints affected.

The subject of assay [2] is experimental autoimmune encephalomyelitis (EAE). Description: Experimental autoimmune encephalomyelitis (EAE) model of multiple sclerosis. Type of assay: in vivo, mouse. Here is the method: Six groups of B6 mice were immunized with MOG/CFA and injected with pertussis toxin to induce experimental autoimmune encephalomyelitis (EAE), an animal model of Multiple sclerosis. Three groups of mice were treated with vehicle, 4-{3-[1-benzhydryl-5-chloro-2-(2-{[(2,6-dimethylbenzyl)sulfonyl]amino}ethyl)-1H-indol-3-yl]propyl}benzoic acid (Compound A), or 4-{2-[1-benzhydryl-5-chloro-2-(2-{[(3,4-dichlorobenzyl)sulfonyl]amino}-ethyl)-1H-indol-3-yl]ethoxy}benzoic acid (Compound B) from the day of Immunization (orally, 100 mg/kg, twice/day). Another three groups of mice were treated with vehicle, Compound A or Compound B starting on the day of EAE onset (day 15) (orally, 100 mg/kg, twice/day). […] The results are shown in the Table below, wherein mean clinical score is a mean of clinical evaluation of each animal for that particular day.
Animals are Scored as Follows:
• 0—no clinical signs of EAE (no paralysis) • 1—paralysis of tail • 2—paralysis of tail and partial hind leg paralysis • 3—paralysis of tail and complete hind leg paralysis • 4—paralysis of tail, complete hind leg paralysis and a partial front leg paralysis • 5—moribund animal (all four limbs paralyzed, lack of responsiveness, these mice were immediately euthanized).
In addition, the compounds of Examples 14 and 25 were also found to be efficacious in the mouse experimental autoimmune encephalomyelitis (EAE) model of multiple sclerosis. As shown by the data in the Table below, these compounds led to a delayed onset of disease and reduced severity of disease when administered orally in doses as low as 2.5 mg/kg.

Regarding `O=C(O)c1ccc(CCCc2c(CCNS(=O)(=O)Cc3ccccc3C(F)(F)F)n(C(c3ccccc3)c3ccccc3)c3ccc(Cl)cc23)cc1` [Example 10, 4-(3-{5-chloro-1-(diphenylmethyl)-2-[2-({[2-(trifluoromethyl)benzyl]sulfonyl}amino)ethyl]-1H-indol-3-yl}propyl)benzoic acid], in assay [1] (100 mg/kg BID), the “group mean severity scores (paw histology)” value is given as “lowest group mean severity scores” and the “percentage of unaffected (grade 0) paws (histology)” value is given as “highest percentage of unaffected (grade 0) paws”. In addition, the “number of animals without disease symptoms” value in assay [1] (100 mg/kg PO BID) is on record as “greatest”. Besides, in assay [1] (100 mg/kg PO BID for 28 days, semi-therapeutic, from day 10), the “disease severity scores vs vehicle control” value was “statistically significant decrease; also recorded: significant reduction of disease”. Moreover, the “average severity grade (histology), pathologist 1” value in assay [1] (100 mg/kg, vehicle 2.1) stood at 0.9. Moreover, the “average severity grade (histology), pathologist 2” value in assay [1] (100 mg/kg, vehicle 3.0) is reported as 2.1.

As for `Cc1cccc(C)c1CS(=O)(=O)NCCc1c(CCCc2ccc(C(=O)O)cc2)c2cc(Cl)ccc2n1C(c1ccccc1)c1ccccc1` [Compound A, 4-{3-[1-benzhydryl-5-chloro-2-(2-{[(2,6-dimethylbenzyl)sulfonyl]amino}ethyl)-1H-indol-3-yl]propyl}benzoic acid], the mean clinical score in assay [2] (100 mg/kg orally twice/day from EAE onset (day 15), day 11 after immunization) is listed as 0; in assay [2] (100 mg/kg orally twice/day from EAE onset (day 15), day 12 after immunization) it was 0; in assay [2] (100 mg/kg orally twice/day from EAE onset (day 15), day 13 after immunization), 0; in assay [2] (100 mg/kg orally twice/day from EAE onset (day 15), day 14 after immunization) it was 0; in assay [2] (100 mg/kg orally twice/day from EAE onset (day 15), day 15 after immunization), 0.33; in assay [2] (100 mg/kg orally twice/day from EAE onset (day 15), day 16 after immunization) it was 0.60. In addition, the mean clinical score is reported as 0.80 in assay [2] (100 mg/kg orally twice/day from EAE onset (day 15), day 17 after immunization); 1.03 in assay [2] (100 mg/kg orally twice/day from EAE onset (day 15), day 18 after immunization); 1.13 in assay [2] (100 mg/kg orally twice/day from EAE onset (day 15), day 19 after immunization); 1.50 in assay [2] (100 mg/kg orally twice/day from EAE onset (day 15), day 20 after immunization); 1.57 in assay [2] (100 mg/kg orally twice/day from EAE onset (day 15), day 21 after immunization); 1.60 in assay [2] (100 mg/kg orally twice/day from EAE onset (day 15), day 22 after immunization). In addition, the mean clinical score in assay [2] (100 mg/kg orally twice/day from EAE onset (day 15), day 23 after immunization) was determined as 1.37; in assay [2] (100 mg/kg orally twice/day from EAE onset (day 15), day 24 after immunization), 1.43; in assay [2] (100 mg/kg orally twice/day from EAE onset (day 15), day 25 after immunization), 1.23; in assay [2] (100 mg/kg orally twice/day from EAE onset (day 15), day 26 after immunization), 0.87; in assay [2] (100 mg/kg orally twice/day from EAE onset (day 15), day 27 after immunization) it was 0.87; in assay [2] (100 mg/kg orally twice/day from day of immunization (Day 1), day 11 after immunization), 0. Moreover, the mean clinical score is 0 in assay [2] (100 mg/kg orally twice/day from day of immunization (Day 1), day 12 after immunization); 0 in assay [2] (100 mg/kg orally twice/day from day of immunization (Day 1), day 13 after immunization); 0 in assay [2] (100 mg/kg orally twice/day from day of immunization (Day 1), day 14 after immunization); 0 in assay [2] (100 mg/kg orally twice/day from day of immunization (Day 1), day 15 after immunization); 0 in assay [2] (100 mg/kg orally twice/day from day of immunization (Day 1), day 16 after immunization); 0 in assay [2] (100 mg/kg orally twice/day from day of immunization (Day 1), day 17 after immunization). Besides, the mean clinical score in assay [2] (100 mg/kg orally twice/day from day of immunization (Day 1), day 18 after immunization) is recorded as 0; in assay [2] (100 mg/kg orally twice/day from day of immunization (Day 1), day 19 after immunization), 0; in assay [2] (100 mg/kg orally twice/day from day of immunization (Day 1), day 20 after immunization), 0; in assay [2] (100 mg/kg orally twice/day from day of immunization (Day 1), day 21 after immunization), 0.06; in assay [2] (100 mg/kg orally twice/day from day of immunization (Day 1), day 22 after immunization), 0.09; in assay [2] (100 mg/kg orally twice/day from day of immunization (Day 1), day 23 after immunization), 0.16. The mean clinical score in assay [2] (100 mg/kg orally twice/day from day of immunization (Day 1), day 24 after immunization) is given as 0.19; in assay [2] (100 mg/kg orally twice/day from day of immunization (Day 1), day 25 after immunization) it was 0.25; in assay [2] (100 mg/kg orally twice/day from day of immunization (Day 1), day 26 after immunization), 0.28; in assay [2] (100 mg/kg orally twice/day from day of immunization (Day 1), day 27 after immunization), 0.38. The “prevention of EAE / reduction of clinical severity” value in assay [2] (administered from the time of immunization, or in mice with or close to EAE) is recorded as “can prevent EAE”.
